{
  "source": "patent US4465683A",
  "about": "“Anti-psychotic agents” (priority 1979, dated 1984)",
  "key": {"[1]": {"tested_on": "conditioned avoidance response (CAR)", "test": "conditioned avoidance response (CAR) in rats, shuttle box technique, oral", "format": "in vivo", "conditions": "Rattus norvegicus, read-out: ORAL CAR-ED50", "method": "The apparatus employed is a box having a six-inch barrier separating two equal compartments. The floor of the left side of the box contains an electrified grid by means of which an intermittent shock is administered. The other side is not electrified. Rats are trained by placing them individually in the electrified compartment of the box and administering a foot shock which causes the rat to jump the barrier to the non-electrified side. […] The test drug is then administered in various doses to different groups of rats and the effect of the treatment in terms of the number of rats which fail to jump the barrier before receiving a foot shock is measured. That dose of test drug which will reduce the number of conditioned animals jumping the barrier before receiving a foot shock by one-half is referred to as the CAR-ED50."}, "[2]": {"conditions": "compared with imipramine; cited from earlier work"}, "[3]": {"tested_on": "pernicious preening", "test": "Prevention of pernicious preening in mice (anti-psychotic or analgetic)", "format": "in vivo", "conditions": "Mus musculus, po"}, "[4]": {"conditions": "U.S. Pat. No. 3,381,009; cited from earlier work"}, "[5]": {"tested_on": "schizophrenic patients", "conditions": "et al. (1973), cited from earlier work"}, "[6]": {"tested_on": "reserpine ptosis", "test": "Prevention of reserpine ptosis in mice (anti-depressant)", "format": "in vivo"}, "[7]": {"tested_on": "phenylquinone writhing", "test": "Reduction of phenylquinone writhing in mice (analgesic)", "format": "in vivo", "conditions": "Mus musculus, po"}, "[8]": {"conditions": "rats, oral, dose reducing by one-half the number of conditioned animals jumping the barrier before foot shock"}},
  "note": "Counter-ions that a name gives are not always drawn. Like-named read-outs stand apart in the source and are kept apart here.",
  "data": [
    {"molecule": "O=c1n(CCCN2CCN(c3cccc(Cl)c3)CC2)nc2ccccn12", "note": "[Trazodone, 2-[3-[4-(3-chlorophenyl)-1-piperazinyl]-propyl]-1,2,4-triazolo[4,3-a]pyridin-3(2H)-one]", "values": [
      {"measurement": "ED50", "setting": "[1]; [8]", "result": 45.4, "unit": "mg/kg"},
      {"measurement": "clinical antidepressant effectiveness", "setting": "[2]", "result": "equivalent in effectiveness to imipramine"},
      {"measurement": "side effects in clinical use", "setting": "[2]", "result": "fewer side effects"},
      {"measurement": "ED50", "setting": "[3]", "result": 43, "unit": "mg/kg"},
      {"measurement": "pharmacological actions in animal tests", "setting": "[4]", "result": "tranquilizing action, hypotensive action, and analgesic action"},
      {"measurement": "effect on depressive symptoms exhibited by schizophrenics", "setting": "[5]; Ban", "result": "improvement in depressive symptoms"},
      {"measurement": "anti-psychotic action in schizophrenic patients", "setting": "[5]; Galvan", "result": "minimal"},
      {"measurement": "ED50", "setting": "[6]; Mus musculus, po", "result": 36, "unit": "mg/kg"}
    ]},
    {"molecule": "COc1ccccc1N1CCN(CCCCn2nc3ccccn3c2=O)CC1", "note": "[Formula I, R^1 = H, R^2 = 2-CH3 O, 2-[4-[4(2-Methoxphenyl)-1-piperazinyl]-butyl]-1,2,4-triazolo[4,3-a]pyridin-3-(2H)-one Hydrochloride]", "values": [
      {"measurement": "ED50", "setting": "[1]; [8]", "result": 18.4, "unit": "mg/kg"}
    ]},
    {"molecule": "O=c1n(CCCCN2CCN(c3cccc(Cl)c3)CC2)nc2ccccn12", "note": "[Formula I, R^1 = H, R^2 = 3-Cl, 2-[4-[4-(3-Chlorophenyl)piperazin-1-yl]butyl]-1,2,4-triazolo[4,3-a]pyridin-3-(2H)-one]", "values": [
      {"measurement": "ED50", "setting": "[7]", "result": 23, "unit": "mg/kg"},
      {"measurement": "ED50", "setting": "[1]; [8]", "result": 9, "unit": "mg/kg"},
      {"measurement": "ED50", "setting": "[3]", "result": 8, "unit": "mg/kg"},
      {"measurement": "activity in prevention of reserpine ptosis", "setting": "[6]; at 15.7 mg/kg (p.o.)", "result": "inactive"}
    ]},
    {"molecule": "CN(C)CCCN1c2ccccc2Sc2ccc(Cl)cc21", "note": "[Chlorpromazine]", "values": [
      {"measurement": "ED50", "setting": "[1]; po", "result": 38.7, "unit": "mg/kg"}
    ]},
    {"molecule": "Cl.O=c1n(CCCCN2CCN(c3cccc(C(F)(F)F)c3)CC2)nc2ccccn12", "note": "[Formula I, R^1 = H, R^2 = 3-CF3, 2-[4-[4-[3-(Trifluoromethyl)phenyl]-1-piperazinyl]butyl]-1,2,4-triazolo[4,3-a]pyridin-3(2H)-one Hydrochloride]", "values": [
      {"measurement": "ED50", "setting": "[1]; [8]", "result": 11.4, "unit": "mg/kg"}
    ]}
  ]
}
